Data taken from the NIST ThermoML archive (doi:10.1021/je060390q).
Numbers after ± are expanded uncertainties.

Columns and labels:
[1] = Maximal bubble pressure
[2] = xn = mol fraction of the nth substance listed; conditions: Maximal bubble pressure

Cc1cccc(C)c1 [1,3-dimethylbenzene]
[1]
Conditions | surface tension liquid-gas [mN/m]
303.15 K | 27.58 ± 0.6
308.15 K | 27.04 ± 0.59
313.15 K | 26.49 ± 0.58
318.15 K | 25.94 ± 0.56
323.15 K | 25.38 ± 0.55
333.15 K | 24.27 ± 0.53
343.15 K | 23.18 ± 0.51

Cc1ccccc1C [1,2-dimethylbenzene]
[1]
Conditions | surface tension liquid-gas [mN/m]
303.15 K | 28.98 ± 0.63
308.15 K | 28.43 ± 0.62
313.15 K | 27.88 ± 0.61
318.15 K | 27.33 ± 0.59
323.15 K | 26.78 ± 0.58
333.15 K | 25.68 ± 0.56
343.15 K | 24.58 ± 0.54

CC(=O)O [acetic acid]
[1]
Conditions | surface tension liquid-gas [mN/m]
303.15 K | 26.4 ± 0.56
308.15 K | 25.91 ± 0.55
313.15 K | 25.41 ± 0.54
318.15 K | 24.91 ± 0.53
323.15 K | 24.42 ± 0.52
333.15 K | 23.44 ± 0.5
343.15 K | 22.45 ± 0.48

CC(=O)O [acetic acid] + Cc1ccccc1C
[2], x1 = 1
Conditions | surface tension liquid-gas [mN/m]
303.15 K | 26.4 ± 0.56
308.15 K | 25.91 ± 0.55
313.15 K | 25.41 ± 0.54
318.15 K | 24.91 ± 0.53
323.15 K | 24.42 ± 0.52
333.15 K | 23.44 ± 0.5
343.15 K | 22.45 ± 0.48

Cc1cccc(C)c1 [1,3-dimethylbenzene] + CC(=O)O
surface tension liquid-gas [mN/m], [2]
Conditions | x2 = 0 | x2 = 0.1001 | x2 = 0.2001 | x2 = 0.3 | x2 = 0.4188 | x2 = 0.4999 | x2 = 0.5999 | x2 = 0.7018 | x2 = 0.7999 | x2 = 0.9
303.15 K | 27.58 ± 0.6 | 27.51 ± 0.6 | 27.4 ± 0.59 | 27.3 ± 0.59 | 27.17 ± 0.58 | 27.07 ± 0.58 | 26.95 ± 0.58 | 26.87 ± 0.57 | 26.71 ± 0.57 | 26.56 ± 0.57
308.15 K | 27.04 ± 0.59 | 26.97 ± 0.58 | 26.87 ± 0.58 | 26.77 ± 0.58 | 26.63 ± 0.57 | 26.55 ± 0.57 | 26.47 ± 0.57 | 26.36 ± 0.56 | 26.19 ± 0.56 | 26.06 ± 0.56
313.15 K | 26.49 ± 0.58 | 26.42 ± 0.57 | 26.33 ± 0.57 | 26.24 ± 0.57 | 26.1 ± 0.56 | 26.03 ± 0.56 | 25.95 ± 0.56 | 25.84 ± 0.55 | 25.68 ± 0.55 | 25.56 ± 0.55
318.15 K | 25.94 ± 0.56 | 25.88 ± 0.56 | 25.78 ± 0.56 | 25.69 ± 0.56 | 25.58 ± 0.55 | 25.5 ± 0.55 | 25.42 ± 0.55 | 25.32 ± 0.54 | 25.17 ± 0.54 | 25.04 ± 0.54
323.15 K | 25.38 ± 0.55 | 25.32 ± 0.55 | 25.24 ± 0.55 | 25.15 ± 0.54 | 25.04 ± 0.54 | 24.98 ± 0.54 | 24.9 ± 0.54 | 24.76 ± 0.53 | 24.65 ± 0.53 | 24.55 ± 0.53
333.15 K | 24.27 ± 0.53 | 24.23 ± 0.53 | 24.16 ± 0.52 | 24.08 ± 0.52 | 23.98 ± 0.52 | 23.92 ± 0.52 | 23.85 ± 0.51 | 23.74 ± 0.51 | 23.65 ± 0.51 | 23.55 ± 0.51
343.15 K | 23.18 ± 0.51 | 23.15 ± 0.51 | 23.08 ± 0.5 | 23.02 ± 0.5 | 22.93 ± 0.5 | 22.88 ± 0.49 | 22.82 ± 0.49 | 22.72 ± 0.49 | 22.63 ± 0.49 | 22.55 ± 0.48

Cc1ccccc1C [1,2-dimethylbenzene] + CC(=O)O
surface tension liquid-gas [mN/m], [2]
Conditions | x2 = 0 | x2 = 0.1001 | x2 = 0.2001 | x2 = 0.3002 | x2 = 0.4 | x2 = 0.5 | x2 = 0.6213 | x2 = 0.7001 | x2 = 0.8 | x2 = 0.9
303.15 K | 28.98 ± 0.63 | 28.81 ± 0.62 | 28.56 ± 0.62 | 28.32 ± 0.61 | 28.07 ± 0.6 | 27.81 ± 0.6 | 27.5 ± 0.59 | 27.29 ± 0.58 | 27.03 ± 0.58 | 26.74 ± 0.57
308.15 K | 28.43 ± 0.62 | 28.26 ± 0.61 | 28.03 ± 0.61 | 27.78 ± 0.6 | 27.54 ± 0.59 | 27.29 ± 0.59 | 26.98 ± 0.58 | 26.78 ± 0.57 | 26.5 ± 0.57 | 26.24 ± 0.56
313.15 K | 27.88 ± 0.61 | 27.71 ± 0.6 | 27.49 ± 0.59 | 27.25 ± 0.59 | 27.01 ± 0.58 | 26.77 ± 0.58 | 26.47 ± 0.57 | 26.26 ± 0.56 | 25.99 ± 0.56 | 25.74 ± 0.55
318.15 K | 27.33 ± 0.59 | 27.17 ± 0.59 | 26.94 ± 0.58 | 26.7 ± 0.58 | 26.47 ± 0.57 | 26.23 ± 0.56 | 25.94 ± 0.56 | 25.74 ± 0.55 | 25.48 ± 0.55 | 25.22 ± 0.54
323.15 K | 26.78 ± 0.58 | 26.62 ± 0.58 | 26.4 ± 0.57 | 26.17 ± 0.57 | 25.95 ± 0.56 | 25.71 ± 0.55 | 25.42 ± 0.55 | 25.22 ± 0.54 | 24.97 ± 0.54 | 24.72 ± 0.53
333.15 K | 25.68 ± 0.56 | 25.54 ± 0.55 | 25.32 ± 0.55 | 25.11 ± 0.54 | 24.89 ± 0.54 | 24.67 ± 0.53 | 24.4 ± 0.52 | 24.2 ± 0.52 | 23.97 ± 0.51 | 23.73 ± 0.51
343.15 K | 24.58 ± 0.54 | 24.45 ± 0.53 | 24.24 ± 0.53 | 24.04 ± 0.52 | 23.84 ± 0.52 | 23.63 ± 0.51 | 23.37 ± 0.5 | 23.18 ± 0.5 | 22.95 ± 0.49 | 22.73 ± 0.49

CC(=O)O [acetic acid] + Cc1cccc(C)c1
[2], x1 = 1
Conditions | surface tension liquid-gas [mN/m]
303.15 K | 26.4 ± 0.56
308.15 K | 25.91 ± 0.55
313.15 K | 25.41 ± 0.54
318.15 K | 24.91 ± 0.53
323.15 K | 24.42 ± 0.52
333.15 K | 23.44 ± 0.5
343.15 K | 22.45 ± 0.48
